According to US6921768B2, “Cytostatic cerium compounds” (Faustus Forschungs Cie. Translational Cancer Research GmbH, priority 2001, dated 2005):

Key:
[1] = system: over 50 human tumour cell lines; conditions: 48-h sulphurhodamine B-assay
Procedure: First in vitro tests were carried out at the National Cancer Institute (Bethesda, Md., USA).

[2] = system: 13 human tumour xenografts and 10 human tumour cell lines; conditions: propidium iodide assay
[3] = mean over more than 50 human tumour cell lines
[4] = mean over 13 human tumour xenografts and 10 human tumour cell lines

O.[Cl-].[Cl-].[Cl][Ce+2].c1cnc2c(c1)ccc1cccnc12.c1cnc2c(c1)ccc1cccnc12 [KP 776, trans-[aquachlorobis(1,10-phenantrolin)cerium(III)]-dichloride]
Mean Gl50 [1, 3]: 0.61 µg/mL
Mean LC50 [1, 3]: 39.4 µg/mL
activity on single ovarian, kidney cell and parvicellular and non-parvicellular bronchial carcinoma cell lines ([1]; result in words): Above average activities
selectivity among tumour cell line types ([1]; result in words): a certain selectivity for malignant melanoma was evident
IC50 ([1]; read-out: Mean Gl50, mean over more than 50 human tumour cell lines): 0.98 µM
CC50 ([1]; read-out: Mean LC50, mean over more than 50 human tumour cell lines): 63.1 µM
Mean IC50 [2, 4]: 1.20 µg/mL
Mean IC90 [2, 4]: 7.27 µg/mL
tumour type with strongest effectiveness ([2]; result in words): the strongest effectiveness was found on a melanoma (xenograft)
IC50 ([2]; read-out: Mean IC50, mean over 13 human tumour xenografts and 10 human tumour cell lines): 1.92 µM
IC90 ([2]; read-out: Mean IC90, mean over 13 human tumour xenografts and 10 human tumour cell lines): 11.6 µM
